Source: patent US12059422B2 (MEI Pharma, Inc., priority 2011, dated 2024)

Assays:
[1] = biological target: T1, PI3K beta (Homo sapiens, UniProt P42338); assay: Luciferase-based luminescence assay (ADP Glo), PI3K beta enzymatic activity; assay type: biochemical; conditions: for IC50: inhibition of enzymatic activity, ADP Glo, 25 μM ATP, read-out: IC50 p110β; for α/β ratio: ratio of enzymatic IC50 values, Table 1
T1 construct: purchased Millipore, Billerica, MA, USA
Experimental: PI3K catalyzes the conversion of phosphatidylinositol-4,5-bisphosphate (PIP2) and ATP to phosphatidylinositol-3,4,5-trisphosphate (PIP3) and ADP. For all assays, the reaction buffer comprised 50 mM HEPES, pH 7.5, 3 mM MgCl2, 1 mM EGTA, 100 mM NaCl, 0.03% CHAPS and 2 mM DTT. Compounds for testing were dissolved and serially diluted in 100% DMSO (total of 10 concentrations), then diluted 1:25 in reaction buffer.
PI3K beta and gamma enzymatic activity was determined by measuring the amount of ADP produced following the kinase reaction using a luciferase-based luminescence assay (ADP Glo®, Promega Corp., Madison, WI, USA). PI3K enzyme solutions were prepared by diluting PI3K beta (Millipore, Billerica, MA, USA) or PI3K gamma (Invitrogen Corp., Carlsbad, CA, USA) in reaction buffer, to 4× the final assay concentration (final concentrations of enzymes were 4.8 nM and 7.6 nM for PI3K beta and PI3K gamma respectively). A substrate solution was prepared by mixing PIP2 and ATP in reaction buffer at 2× the final assay concentration (final concentrations were 50 μM and 25 μM for PIP2 and ATP respectively). 2.5 μL each of the compound and kinase mixtures were added to individual wells of white low volume 384-well assay plates and mixed by shaking. The reactions were started by adding 5 μL of substrate mixture per well and shaking. The assay plates were covered and reactions were allowed to proceed for 1 hour. Then, 5 μL of reaction mix was transferred to another white low volume 384-well plate, and 5 μL of ADP-Glo™ reagent was added. The plates were briefly centrifuged and incubated for 40 minutes, after which 10 μL of kinase detection buffer was added. The plates then were centrifuged briefly, shaken slowly and equilibrated at room temperature for 30 minutes, after which luminescence was measured using a FlexStation plate reader (Molecular Devices, Sunnyvale, CA, USA). IC50 values were determined by curve fitting using Graphpad Prism software (Graphpad Software, La Jolla, CA, USA).

[2] = biological target: T2, PI3Kγ (Mus musculus, UniProt Q9JHG7); assay: ELISA assay for PI3Kγ: in-cell ELISA, phosphorylation of AKT (Ser473) in RAW 264.7 cells; assay type: cell-based; conditions: cellular, pAKT (Ser473), C5a stimulation, read-out: IC50 p110γ
T2 construct: endogenous in cells; host or cells: RAW 264.7 (ATCC #TIB-71)
T2 sequence (Q9JHG7 whole entry): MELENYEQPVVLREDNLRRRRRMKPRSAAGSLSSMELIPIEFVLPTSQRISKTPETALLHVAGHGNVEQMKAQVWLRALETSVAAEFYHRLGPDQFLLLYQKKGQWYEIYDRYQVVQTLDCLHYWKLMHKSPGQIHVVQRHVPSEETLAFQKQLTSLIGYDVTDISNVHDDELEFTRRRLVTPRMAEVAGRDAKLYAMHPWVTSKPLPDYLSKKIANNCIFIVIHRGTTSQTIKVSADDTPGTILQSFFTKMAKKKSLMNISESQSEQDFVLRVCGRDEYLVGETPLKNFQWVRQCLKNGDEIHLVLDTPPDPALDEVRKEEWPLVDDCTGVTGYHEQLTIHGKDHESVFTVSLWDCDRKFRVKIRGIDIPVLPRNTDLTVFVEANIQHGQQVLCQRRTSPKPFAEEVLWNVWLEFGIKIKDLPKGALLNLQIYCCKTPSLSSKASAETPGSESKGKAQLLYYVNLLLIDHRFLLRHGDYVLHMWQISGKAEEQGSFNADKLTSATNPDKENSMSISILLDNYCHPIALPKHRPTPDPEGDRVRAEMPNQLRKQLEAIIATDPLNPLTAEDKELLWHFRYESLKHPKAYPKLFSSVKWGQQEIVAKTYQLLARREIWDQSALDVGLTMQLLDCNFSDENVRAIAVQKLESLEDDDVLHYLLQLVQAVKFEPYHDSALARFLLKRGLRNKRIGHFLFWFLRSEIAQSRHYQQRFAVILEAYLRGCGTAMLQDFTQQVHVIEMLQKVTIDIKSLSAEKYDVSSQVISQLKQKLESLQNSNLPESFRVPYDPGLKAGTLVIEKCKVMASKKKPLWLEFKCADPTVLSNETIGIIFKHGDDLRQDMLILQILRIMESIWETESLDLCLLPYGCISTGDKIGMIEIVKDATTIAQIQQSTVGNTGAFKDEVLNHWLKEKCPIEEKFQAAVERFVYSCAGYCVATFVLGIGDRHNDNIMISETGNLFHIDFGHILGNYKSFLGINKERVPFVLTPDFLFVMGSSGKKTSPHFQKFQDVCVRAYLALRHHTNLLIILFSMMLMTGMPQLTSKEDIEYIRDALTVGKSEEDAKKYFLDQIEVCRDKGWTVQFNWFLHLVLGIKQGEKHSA
Experimental: PI3K gamma (PI3Kγ) activity was determined by measuring the phosphorylation of AKT (Ser473) using an in-cell ELISA assay. RAW 264.7 (mouse macrophage) cells were obtained from ATCC (ATCC #TIB-71). Growth medium was DMEM (CellGro #CV-10-013-CV) supplemented with 10% fetal bovine serum, 100 IU/mL penicillin, 100 μg/mL streptomycin, and 1×MEM non-essential amino acids. Phosphate buffered saline (PBS) contained 2.7 M NaCl, 54 mM KCl, 86 mM […] (dibasic, anhydrous), and 28 mM […] (monobasic, anhydrous) at pH 7.2. Stimulation mixture (10×) was 500 ng/mL recombinant human complement component C5a (R&D systems #2037-C5-025) diluted in serum-free DMEM medium (CellGro #CV-10-013-CV). Compounds for testing were dissolved and serially diluted in 100% DMSO (total of 10 concentrations), then diluted in serum-free DMEM to 2× final assay concentration. Fixative solution (2×) was 8% formaldehyde (Amresco #M134) diluted in PBS. Permeabilization solution was PBS supplemented with 0.10% Triton X-100. Blocking buffer was obtained from LiCor (LiCor #927-40000). Wash buffer was PBS supplemented with 0.1% Tween-20. Primary antibody solution was rabbit anti-pAKT^S473 monoclonal antibody (Cell Signaling #4060) and mouse anti-total S6 (Santa Cruz #74459) diluted 1:500 and 1:2000, respectively, in the blocking buffer. Secondary antibody solution was IRDye 800CW-conjugated goat anti-rabbit IgG (LiCor #926-32211) and IRDye 680LT-conjugated goat anti-mouse IgG (LiCor #926-68020) diluted 1:1000 and 1:2000, respectively, in the blocking buffer.
RAW 264.7 cells were subcultured in growth medium and seeded into flat, clear bottom, 96-well plates (Corning #3904) at 70000 cells/well, then incubated overnight in a 37° C., 5% CO2 incubator. Growth medium in plates was replaced with 100 μL/well serum-free DMEM and incubated overnight in a 37° C., 5% CO2 incubator. Fresh serum-free DMEM (50 μL/well) was added to plates. Compound treatment was performed by adding 50 μL/well of 2× compound mixture to plates and incubating for 2 hrs at 37° C., 5% CO2, after which 11 μL/well of 10× stimulation mixture was added and plates were incubated for 3 min at 37° C., 5% CO2. Fixation was performed by adding 110 μL/well of 2× fixative solution to plates and incubating for 20 min at room temperature. Permeabilization was performed by replacing fixation solution with 150 μL/well permeabilization solution and incubating for 10 min at room temperature. Permeabilization was repeated (for a total of 2 times). Permeabilization solution was replaced with 100 μL/well blocking buffer and plates were incubated for 1 hr at room temperature, after which 100 μL/well of primary antibody solution was added and plates were incubated overnight at 4° C. Plates were washed with wash buffer, after which 100 μL/well of secondary antibody solution was added to the plates and incubated in the dark for 1 hr at room temperature. Plates were washed with wash buffer, followed by awash with PBS. After completely removing PBS, plates were scanned on the Licor Odyssey Imager. Images were quantified using Licor Odyssey application software. IC50 values were determined by curve fitting using a Collaborative Drug Discovery database (www.collaborativedrug.com).

T1 sequence (P42338 whole entry, species assumed): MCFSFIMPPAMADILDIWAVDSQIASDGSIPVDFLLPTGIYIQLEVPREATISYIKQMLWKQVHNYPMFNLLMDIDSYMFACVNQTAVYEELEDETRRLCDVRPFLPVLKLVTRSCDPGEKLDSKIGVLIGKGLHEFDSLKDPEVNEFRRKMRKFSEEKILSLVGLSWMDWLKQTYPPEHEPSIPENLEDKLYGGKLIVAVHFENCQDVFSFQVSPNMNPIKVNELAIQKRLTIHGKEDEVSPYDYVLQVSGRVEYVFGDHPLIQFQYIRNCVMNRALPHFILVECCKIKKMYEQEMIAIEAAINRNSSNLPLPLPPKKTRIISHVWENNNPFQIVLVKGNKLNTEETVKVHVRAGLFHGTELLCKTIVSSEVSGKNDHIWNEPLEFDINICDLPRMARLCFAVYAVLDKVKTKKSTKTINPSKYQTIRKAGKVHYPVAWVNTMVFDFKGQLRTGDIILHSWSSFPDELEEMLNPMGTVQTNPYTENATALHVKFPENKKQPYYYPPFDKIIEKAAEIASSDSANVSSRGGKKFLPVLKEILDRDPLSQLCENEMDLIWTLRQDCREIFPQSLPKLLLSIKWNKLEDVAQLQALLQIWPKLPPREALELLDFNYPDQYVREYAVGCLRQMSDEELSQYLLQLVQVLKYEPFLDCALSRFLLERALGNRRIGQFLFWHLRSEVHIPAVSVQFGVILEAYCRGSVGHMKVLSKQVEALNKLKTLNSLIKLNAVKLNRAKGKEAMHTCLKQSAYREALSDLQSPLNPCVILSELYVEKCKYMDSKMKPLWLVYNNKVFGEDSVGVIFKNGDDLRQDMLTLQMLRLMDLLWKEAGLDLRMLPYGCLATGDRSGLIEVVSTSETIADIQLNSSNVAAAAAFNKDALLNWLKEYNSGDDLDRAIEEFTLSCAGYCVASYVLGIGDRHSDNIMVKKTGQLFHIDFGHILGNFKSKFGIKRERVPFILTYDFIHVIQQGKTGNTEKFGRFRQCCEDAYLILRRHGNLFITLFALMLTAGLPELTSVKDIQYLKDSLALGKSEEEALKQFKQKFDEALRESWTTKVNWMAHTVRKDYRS
T1 sequence (P27986 whole entry partner, species assumed): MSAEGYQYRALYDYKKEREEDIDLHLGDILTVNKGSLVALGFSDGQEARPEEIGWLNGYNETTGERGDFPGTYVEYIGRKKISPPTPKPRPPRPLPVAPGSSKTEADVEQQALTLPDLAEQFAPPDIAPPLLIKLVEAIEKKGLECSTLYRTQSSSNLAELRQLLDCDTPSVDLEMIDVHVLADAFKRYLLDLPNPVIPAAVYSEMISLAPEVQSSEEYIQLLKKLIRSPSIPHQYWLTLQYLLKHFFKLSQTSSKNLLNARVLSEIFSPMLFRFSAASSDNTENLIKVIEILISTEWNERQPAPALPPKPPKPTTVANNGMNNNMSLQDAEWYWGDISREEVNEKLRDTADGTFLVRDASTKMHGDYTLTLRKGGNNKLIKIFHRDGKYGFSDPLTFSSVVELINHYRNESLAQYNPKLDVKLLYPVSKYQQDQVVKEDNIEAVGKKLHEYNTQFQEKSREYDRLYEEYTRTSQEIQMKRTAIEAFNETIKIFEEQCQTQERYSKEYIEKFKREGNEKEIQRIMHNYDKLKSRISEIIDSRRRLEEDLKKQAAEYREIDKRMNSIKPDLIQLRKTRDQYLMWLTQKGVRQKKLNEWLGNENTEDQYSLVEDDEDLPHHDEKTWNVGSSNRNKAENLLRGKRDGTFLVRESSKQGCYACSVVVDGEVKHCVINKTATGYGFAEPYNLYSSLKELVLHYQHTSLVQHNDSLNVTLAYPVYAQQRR

SMILES | IC50 [1] [nM] | α/β ratio [1] | IC50 [2] [nM]
CC(C)(Cc1ccccc1Cl)Nc1nc(N2CCOCC2)nc(-n2c(C(F)F)nc3ccccc32)n1 [Compound A16, 4-(2-(difluoromethyl)-1H-benzo[d]imidazol-1-yl)-N-(1-(2-chlorophenyl)-2-methylpropan-2-yl)-6-morpholino-1,3,5-triazin-2-amine] | ≤ 100 | A’ | > 500
CN(C)CCCc1ccccc1CC(C)(C)Nc1nc(N2CCOCC2)nc(-n2c(C(F)F)nc3ccccc32)n1 [Compound A76, 4-(2-(difluoromethyl)-1H-benzo[d]imidazol-1-yl)-N-(1-(2-(3-(dimethylamino)propyl)phenyl)-2-methylpropan-2-yl)-6-morpholino-1,3,5-triazin-2-amine] | 200 to 500 | C’ | > 500
CC(C)(Cc1ccccc1F)Nc1nc(N2CCOCC2)nc(-n2c(C(F)F)nc3ccccc32)n1 [Compound A15, 4-(2-(difluoromethyl)-1H-benzo[d]imidazol-1-yl)-N-(1-(2-fluorophenyl)-2-methylpropan-2-yl)-6-morpholino-1,3,5-triazin-2-amine] | 100 to 200 | D’ | 200 to 500
COc1cc(CC(C)(C)Nc2nc(N3CCOCC3)nc(-n3c(C(F)F)nc4ccccc43)n2)ccc1F [Compound A50, 4-(2-(difluoromethyl)-1H-benzo[d]imidazol-1-yl)-N-(1-(4-fluoro-3-methoxyphenyl)-2-methylpropan-2-yl)-6-morpholino-1,3,5-triazin-2-amine] | ≤ 100 | B’ | 200 to 500
CC(C)(Cc1ccccc1-c1cccnc1F)Nc1nc(N2CCOCC2)nc(-n2c(C(F)F)nc3ccccc32)n1 [Compound A62] | > 500 | D’ | 200 to 500
COc1cccc(-c2ccccc2CC(C)(C)Nc2nc(N3CCOCC3)nc(-n3c(C(F)F)nc4ccccc43)n2)c1 [Compound A66, 4-(2-(difluoromethyl)-1H-benzo[d]imidazol-1-yl)-N-(1-(3′-methoxybiphenyl-2-yl)-2-methylpropan-2-yl)-6-morpholino-1,3,5-triazin-2-amine] | > 500 | D’ | > 500
Cc1ccccc1CC(C)(C)Nc1nc(N2CCOCC2)nc(-n2c(C(F)F)nc3ccccc32)n1 [Compound A18, 4-(2-(difluoromethyl)-1H-benzo[d]imidazol-1-yl)-N-(2-methyl-1-(o-tolyl)propan-2-yl)-6-morpholino-1,3,5-triazin-2-amine] | ≤ 100 | A’ | 200 to 500
CC(C)(Cc1ccccc1-c1ccccc1Cl)Nc1nc(N2CCOCC2)nc(-n2c(C(F)F)nc3ccccc32)n1 [Compound A61, 4-(2-(difluoromethyl)-1H-benzo[d]imidazol-1-yl)-N-(1-(6′-chlorobiphenyl-2-yl)-2-methylpropan-2-yl)-6-morpholino-1,3,5-triazin-2-amine] | ≤ 100 | A’ | > 500
CCN1CCC(c2ccccc2CC(C)(C)Nc2nc(N3CCOCC3)nc(-n3c(C(F)F)nc4ccccc43)n2)CC1 [Compound A70, 4-(2-(difluoromethyl)-1H-benzo[d]imidazol-1-yl)-N-(1-(2-(1-ethylpiperidin-4-yl)phenyl)-2-methylpropan-2-yl)-6-morpholino-1,3,5-triazin-2-amine] | > 500 | C’ | > 500
Cc1ccccc1-c1ccccc1CC(C)(C)Nc1nc(N2CCOCC2)nc(-n2c(C(F)F)nc3ccccc32)n1 [Compound A60, 4-(2-(difluoromethyl)-1H-benzo[d]imidazol-1-yl)-N-(2-methyl-1-(2′-methylbiphenyl-2-yl)propan-2-yl)-6-morpholino-1,3,5-triazin-2-amine] | ≤ 100 | A’ | > 500
CC(C)(Cc1ccccc1C1CCN(S(C)(=O)=O)CC1)Nc1nc(N2CCOCC2)nc(-n2c(C(F)F)nc3ccccc32)n1 [Compound A73, 4-(2-(difluoromethyl)-1H-benzo[d]imidazol-1-yl)-N-(2-methyl-1-(2-(1-(methylsulfonyl)piperidin-4-yl)phenyl)propan-2-yl)-6-morpholino-1,3,5-triazin-2-amine] | ≤ 100 | A’ | ≤ 100
CC(C)(Cc1ccccc1-c1ccncc1)Nc1nc(N2CCOCC2)nc(-n2c(C(F)F)nc3ccccc32)n1 [Compound A33, 4-(2-(difluoromethyl)-1H-benzo[d]imidazol-1-yl)-N-(2-methyl-1-(2-(pyridin-4-yl)phenyl)propan-2-yl)-6-morpholino-1,3,5-triazin-2-amine] | ≤ 100 | B’ | 
COc1cccc(CC(C)(C)Nc2nc(N3CCOCC3)nc(-n3c(C(F)F)nc4ccccc43)n2)c1 [Compound A21, 4-(2-(difluoromethyl)-1H-benzo[d]imidazol-1-yl)-N-(1-(3-methoxyphenyl)-2-methylpropan-2-yl)-6-morpholino-1,3,5-triazin-2-amine] | 100 to 200 | C’ | 200 to 500
CN1CCC(c2ccccc2CC(C)(C)Nc2nc(N3CCOCC3)nc(-n3c(C(F)F)nc4ccccc43)n2)C1 (stereo not shown) [Compound A75, 4-(2-(difluoromethyl)-1H-benzo[d]imidazol-1-yl)-N-(2-methyl-1-(2-(1-methylpyrrolidin-3-yl)phenyl)propan-2-yl)-6-morpholino-1,3,5-triazin-2-amine] |  |  | 100 to 200
CC(C)(Cc1cccc2ccccc12)Nc1nc(N2CCOCC2)nc(-n2c(C(F)F)nc3ccccc32)n1 [Compound A27, 4-(2-(difluoromethyl)-1H-benzo[d]imidazol-1-yl)-N-(2-methyl-1-(naphthalen-1-yl)propan-2-yl)-6-morpholino-1,3,5-triazin-2-amine] | ≤ 100 | B’ | 
COc1ccccc1CC(C)(C)Nc1nc(N2CCOCC2)nc(-n2c(C(F)F)nc3ccccc32)n1 [Compound A19, 4-(2-(difluoromethyl)-1H-benzo[d]imidazol-1-yl)-N-(1-(2-methoxyphenyl)-2-methylpropan-2-yl)-6-morpholino-1,3,5-triazin-2-amine] | 200 to 500 | D’ | 
